Experimental data reported in patent US9365553B2, “Heterocyclic compound and H1 receptor antagonist” (Aska Pharmaceutical Co., Ltd., priority 2010, dated 2016).

Tests used:
rat H1 receptor = target: T1, rat H1 receptor (Rattus norvegicus, UniProt P31390); test: Rat H1 receptor affinity test (Test Example 1); assay type: binding; details: rat cerebrum membrane preparation, [3H]-pyrilamine 2 nmol/L
T1 construct: An H1 receptor membrane preparation was prepared from rat cerebrum; from tissue; host or cells: rat cerebrum
T1 sequence (P31390 whole entry): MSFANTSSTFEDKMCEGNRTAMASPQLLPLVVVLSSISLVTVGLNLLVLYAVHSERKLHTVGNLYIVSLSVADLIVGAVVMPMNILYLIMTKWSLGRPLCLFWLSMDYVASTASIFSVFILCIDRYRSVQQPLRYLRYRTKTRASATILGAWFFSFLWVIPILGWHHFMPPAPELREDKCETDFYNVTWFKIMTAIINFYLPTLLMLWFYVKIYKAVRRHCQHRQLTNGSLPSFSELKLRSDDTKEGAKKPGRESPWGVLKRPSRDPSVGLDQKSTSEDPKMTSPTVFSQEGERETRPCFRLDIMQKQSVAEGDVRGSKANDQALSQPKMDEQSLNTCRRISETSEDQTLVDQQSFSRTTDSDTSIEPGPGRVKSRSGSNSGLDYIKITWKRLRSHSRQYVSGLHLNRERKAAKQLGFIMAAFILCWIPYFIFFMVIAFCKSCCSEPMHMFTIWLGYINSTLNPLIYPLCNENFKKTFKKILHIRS
Description: An H1 receptor membrane preparation was prepared from rat cerebrum. […] To the resulting each sample, 50 μL of 8 nmol/L [^3H]-pyrilamine (manufactured by PerkinElmer) (final concentration: 2 nmol/L) was added and mixed. After the mixture was incubated at a room temperature for 30 minutes, the reaction solution was collected on a glass filter by a cell harvester (manufactured by Molecular Devices), and then the filter was washed with the incubation buffer. The glass filter was cut off and transferred in a vial. To the vial was added 5 mL of a scintillator (manufactured by National Diagnostics), and the mixture was shaken for not less than one hour. Thereafter, the radioactive concentration was measured by a liquid scintillation counter.

human H1 receptor = target: T2, human H1 receptor (Homo sapiens, UniProt P35367); test: Human H1 receptor affinity test (Test Example 2); assay type: binding; details: CHO cell membrane preparation expressing human H1 receptor, [3H]-pyrilamine 2 nmol/L
T2 construct: purchased; host or cells: CHO cells
T2 sequence (P35367 whole entry): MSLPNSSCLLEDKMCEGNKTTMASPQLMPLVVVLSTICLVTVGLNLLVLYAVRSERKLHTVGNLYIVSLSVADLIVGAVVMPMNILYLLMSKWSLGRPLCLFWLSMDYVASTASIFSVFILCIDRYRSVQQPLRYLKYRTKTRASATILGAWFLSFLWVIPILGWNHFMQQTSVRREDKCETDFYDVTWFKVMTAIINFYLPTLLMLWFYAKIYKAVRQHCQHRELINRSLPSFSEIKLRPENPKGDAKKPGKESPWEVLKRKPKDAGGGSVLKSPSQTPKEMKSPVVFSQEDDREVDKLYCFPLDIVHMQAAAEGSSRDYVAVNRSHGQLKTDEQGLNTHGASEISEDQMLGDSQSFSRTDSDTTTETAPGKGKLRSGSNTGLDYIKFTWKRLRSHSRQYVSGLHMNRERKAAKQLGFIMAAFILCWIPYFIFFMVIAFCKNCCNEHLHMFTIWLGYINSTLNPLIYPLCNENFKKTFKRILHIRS
Description: Chinese hamster ovarian cells (CHO cells) having human H1 receptor forcibly express were purchased and used as an H1 receptor membrane preparation. […] To the resulting each sample, 50 μL of 8 nmol/L [^3H]-pyrilamine (final concentration: 2 nmol/L) was added and mixed. […] The glass filter was cut off and transferred in a vial. To the vial was added 5 mL of a scintillator (manufactured by National Diagnostics), and the mixture was shaken for not less than one hour. Thereafter, the radioactive concentration was measured by a liquid scintillation counter.

[1] = tested on: histamine-induced skin reaction in rat; test: Histamine-induced skin reaction test in rat (Test Example 3); assay type: in vivo; details: oral, histamine 10 μg/0.1 mL/site intradermal, pigment area, read-out: Skin reaction test in rat ID50
Description: […] One hour after the administration, a 1% Evans Blue physiological saline solution (Tokyo Chemical Industry Co., Ltd.) was administered into the caudal vein in a dose of 5 mL/kg, and immediately histamine 10 μg/0.1 mL/site (manufactured by Wako Pure Chemical Industries, Ltd.) was intradermally administered into the dorsum. Thirty minutes after the administration, the rat was anesthetized with diethyl ether and then euthanized by cervical dislocation. The skin was ablated, and the major axis and minor axis of a spot of the pigment exuded into the skin were measured to calculate the area of the pigment.

[2] = tested on: histamine-induced skin reaction in mouse; test: Skin reaction test in mouse (Test Example 4); assay type: in vivo; details: oral, histamine 3 μg/50 μL/site intradermal, pigment area, read-out: Skin reaction test in mouse ID50
Description: Each mouse was sheared the day before test and fasted overnight. A low, middle or high dose of each test compound suspended in a 0.5% (W/V) CMC-Na aqueous solution was orally administered to the mouse. One hour after the administration, a 1% Evans Blue physiological saline solution (Tokyo Chemical Industry Co., Ltd.) was administered into the caudal vein in a dose of 10 mL/kg, and immediately histamine 3 μg/50 μL/site was intradermally administered into the dorsum. Thirty minutes after the administration, the mouse was anesthetized with diethyl ether and then euthanized by cervical dislocation. The skin was ablated, and the major axis and minor axis of a spot of the pigment exuded into the skin were measured to calculate the area of the pigment.

[3] = tested on: mouse IgE-dependent ear edema model; test: Inhibitory effects on mouse IgE-dependent ear edema model (Test Example 8); assay type: in vivo; details: oral twice a day, dose a multiple of mouse ID50 (Dose column of Table E); for Inhibitory effects in each allergic reaction phase: Immediate phase: mouse ear swelling 1 hour after antigen; for Inhibitory effects in each allergic reaction phase: Late phase: mouse ear swelling 24 hours after antigen; for Inhibitory effects in each allergic reaction phase: Very late phase: mouse ear swelling 7 days after antigen;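 as to all read-outs here: 5 or 10 times the mouse skin-reaction ID50 per dose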
Description: To each mouse, 0.25 mL of an anti-DNP-IgE antibody (manufactured by SIGMA-ALDRICH) was intravenously administered for passive sensitization. On the day following the administration, an antigen (DNFB solution; manufactured by Wako Pure Chemical Industries, Ltd.) was applied on the right ear to induce dermatitis (ear swelling). One hour, 24 hours and 7 days after the application of the antigen, the thickness of the right ear was measured by a thickness measuring apparatus (dial thickness gauge). […] The thickness of the right ear before the sensitization was measured beforehand; the inhibition rates of the swelling in immediate phase, late phase, and very late phase were calculated.

IC50 (rat H1 receptor) [nM]	IC50 (human H1 receptor) [nM]	Compound	further results
88		O=C(O)COCCN1CCN(C(c2ccccc2)c2ccc(Cl)cc2)CC1 (centres unmarked) [Cetirizine]	
81	14	O=C(O)c1ccc(CN2CCC(OC(c3ccccc3)c3ccccc3)CC2)o1 [Example 1, 5-(4-Benzhydryloxypiperidin-1-ylmethyl)furan-2-carboxylic acid]	
55		O=C(O)c1coc(CN2CCC(OC(c3ccccc3)c3ccccc3)CC2)n1 [Example 3]	
39		O=C(O)c1csc(CN2CCC(OC(c3ccccc3)c3ccccc3)CC2)n1 [Example 4]	
38	11	O=C(O)c1cc(F)cc(CN2CCC(OC(c3ccccc3)c3ccccc3)CC2)c1 [Example 6]	ED50 [1]: 0.6 mg/kg
110		COc1ccc(C(OC2CCN(Cc3cccc(C(=O)O)n3)CC2)c2ccccc2)cc1 (centres unmarked) [Example 17]	
89		O=C(O)c1cccc(CN2CCC(OC(c3ccccc3)c3ccc(F)cc3)CC2)n1 (centres unmarked) [Example 18]	ED50 [1]: 0.2 mg/kg
69	29	O=C(O)c1cccc(CN2CCC(OC(c3ccccc3)c3ccccc3F)CC2)n1 (centres unmarked) [Example 20]	
36	30	O=C(O)c1cccc(CN2CCN(C(c3ccccc3)c3ccc(Cl)cc3)CC2)n1 (centres unmarked) [Example 23]	ED50 [1]: 1.8 mg/kg
8.2	9.2	O=C(O)c1cccc(CN2CCC(OC(c3ccccc3)c3ccccc3)C2)n1 (centres unmarked) [Example 24]	
12	22	O=C(O)c1cccc(CN2CCC(OC(c3ccccc3)c3cccc(F)c3)CC2)n1 (centres unmarked) [Example 25]	
83		O=C(O)c1cccc(CN2CCC(OC(c3ccccc3)c3cccc(C(F)(F)F)c3)CC2)n1 (centres unmarked) [Example 26]	
63		O=C(O)c1cc(CN2CCC(OC(c3ccccc3)c3ccccc3)CC2)ccn1 [Example 29]	
42	15	O=C(O)c1cncc(CN2CCC(OC(c3ccccc3)c3ccccc3)CC2)c1 [Example 30]	
61	15	O=C(O)c1ccc(CN2CCC(OC(c3ccccc3)c3ccccc3)CC2)[nH]1 [Example 35, 5-(4-Benzhydryloxypiperidin-1-ylmethyl)-1H-pyrrole-2-carboxylic acid]	
99		O=C(O)c1nc(CN2CCC(OC(c3ccccc3)c3ccccc3)CC2)cs1 [Example 36]	
1.2	26	O=C(O)c1ccnc(CN2CCC(OC(c3ccccc3)c3cccc(F)c3)CC2)c1 (centres unmarked) [Example 40]	
19	18	Cc1ccc(C(OC2CCN(Cc3cc(C(=O)O)ccn3)CC2)c2ccccc2)cc1 (centres unmarked) [Example 41]	
24	19	O=C(O)c1ccnc(CN2CCC(OC(c3ccccc3)c3ccc(Cl)cc3)CC2)c1 (centres unmarked) [Example 42]	ED50 [1]: 1.8 mg/kg
18	12	O=C(O)c1ccc(CN2CCC(OC(c3ccccc3)c3ccc(Cl)cc3)CC2)o1 (centres unmarked) [Example 43]	
20		O=C(O)c1nc(CN2CCC(OC(c3ccccc3)c3ccc(Cl)cc3)CC2)cs1 (centres unmarked) [Example 44]	
68		Cc1ccc(C(OC2CCN(Cc3ccc(C(=O)O)o3)CC2)c2ccccc2)cc1 (centres unmarked) [Example 46]	
89	17	O=C(O)c1cccc(CN2CCC(OC(c3ccc(F)cc3)c3cccc(F)c3)CC2)n1 (centres unmarked) [Example 49]	ED50 [1]: 1.5 mg/kg

IC50 (rat H1 receptor) [nM]	IC50 (human H1 receptor) [nM]	Compound	further results
	4.9	O=C(O)c1ccnc(CN2CCC(OC(c3ccccc3)c3ccc(F)c(F)c3)CC2)c1 (centres unmarked) [Example 51]	ED50 [2]: 0.07 mg/kg
	6.7	O=C(O)c1ccnc(CN2CCC(OC(c3ccc(F)cc3)c3cccc(F)c3)CC2)c1 (centres unmarked) [Example 52]	ED50 [2]: 0.1 mg/kg
	14	COc1ccc(CN2CCC(OC(c3ccccc3)c3ccc(F)c(F)c3)CC2)nc1C(=O)O (centres unmarked) [Example 53]	
40		O=C(O)c1cccc(CN2CCC(=C3c4ccc(Cl)cc4CCc4cccnc43)CC2)n1 [Example 68]	
	8.9	O=C(O)c1ccnc(CN2CCC(=C3c4ccccc4C=Cc4ccccc43)CC2)c1 [Example 72]	ED50 [2]: 0.06 mg/kg
		O=C(O)c1cccc(CN2CCC(=C3c4ccccc4CCc4ccccc43)CC2)c1 [Example 74]	ED50 [1]: 2.1 mg/kg
67	23	O=C(O)c1cccc(CN2CCC(=C3c4ccccc4CCc4ccccc43)CC2)n1 [Example 75]	ED50 [1]: 1.2 mg/kg
	17	O=C(O)c1cccc(CN2CCC(=C3c4ccccc4COc4ccccc43)CC2)n1 [Example 80]	
	17	O=C(O)c1cnn(CN2CCC(OC(c3ccccc3)c3ccccc3)CC2)c1 [Example 84]	
	22	O=C(O)c1ccc(CN2CCC(OC(c3ccccc3)c3ccc(F)cc3)CC2)cn1 (centres unmarked) [Example 85]	
	16	O=C(O)c1cccc(CN2CCC(OC(c3ccc(F)cc3)c3ccccc3F)CC2)n1 (centres unmarked) [Example 86]	
	21	O=C(O)c1ccnc(CN2CCC(OC(c3ccc(F)cc3)c3ccccc3F)CC2)c1 (centres unmarked) [Example 87]	Inhibitory effects in each allergic reaction phase: Immediate phase [3]: ++ (++ Inhibitory rate 45 to 20%); Inhibitory effects in each allergic reaction phase: Late phase [3]: ++ (++ Inhibitory rate 45 to 20%); Inhibitory effects in each allergic reaction phase: Very late phase [3]: + (+ Inhibitory rate 19 to 10%); ED50 [2]: 0.06 mg/kg
	21	O=C(O)c1cncc(CN2CCC(OC(c3ccccc3)c3ccc(F)cc3)CC2)c1 (centres unmarked) [Example 88]	
	7.5	O=C(O)c1cc(CN2CCC(OC(c3ccccc3)c3ccc(F)cc3)CC2)cs1 (centres unmarked) [Example 89]	
	17	O=C(O)c1cccc(CN2CCC(OC(c3ccccc3)c3cccc(Cl)c3)CC2)n1 (centres unmarked) [Example 116]	
	24	O=C(O)c1ccnc(CN2CCC(OC(c3ccccc3)c3cccc(Cl)c3)CC2)c1 (centres unmarked) [Example 117]	
	8.4	O=C(O)c1ccnc(CN2CCC(OC(c3ccc(F)cc3)c3ccc(F)cc3)CC2)c1 [Example 124]	
	6.1	O=C(O)c1cccc(CN2CC[C@@H](OC(c3ccccc3)c3ccccc3)C2)n1 [Example 128, 6-((R)-3-Benzhydryloxypyrrolidin-1-ylmethyl)pyridine-2-carboxylic acid]	
	5.1	O=C(O)c1cccc(CN2CC[C@H](OC(c3ccccc3)c3ccccc3)C2)n1 [Example 129, 6-((S)-3-Benzhydryloxypyrrolidin-1-ylmethyl)pyridine-2-carboxylic acid]	Inhibitory effects in each allergic reaction phase: Immediate phase [3]: ++ (++ Inhibitory rate 45 to 20%); Inhibitory effects in each allergic reaction phase: Late phase [3]: ++ (++ Inhibitory rate 45 to 20%); Inhibitory effects in each allergic reaction phase: Very late phase [3]: ++ (++ Inhibitory rate 45 to 20%); ED50 [2]: 0.04 mg/kg
	15	O=C(O)c1ccnc(CN2CC[C@H](OC(c3ccccc3)c3ccccc3)C2)c1 [Example 131, 2-((S)-3-Benzhydryloxypyrrolidin-1-ylmethyl)isonicotinic acid]	
	24	O=C(O)c1cccc(CN2CCN(C(c3ccccc3)c3ccc(F)cc3)CC2)n1 (centres unmarked) [Example 143]	
	13	O=C(O)c1ccnc(CN2CC[C@H](OC(c3ccc(F)cc3)c3ccc(F)cc3)C2)c1 [Example 154]	
	10	O=C(O)c1cccc(CN2CC[C@H](OC(c3ccc(F)cc3)c3ccc(F)cc3)C2)n1 [Example 155]	
